As usually defined, the bioavailability is the share of a dose that reaches the circulation, judged against a reference dose that is usually intravenous. As a reminder, the EC50 is the concentration giving half of the maximal effect.

The nature of series [1]: Determination of absolute bioavailability (restricted PK profile, oral and intravenous). The class given is in vivo. The note with it: absolute bioavailability (F), male Sprague Dawley rats, oral 10 mg/kg AUC(0-6 h) vs intravenous 3 mg/kg AUC(0-3 h). The protocol: To screen rapidly imidazolidines derivatives based on their absolute bioavailabity, restricted pharmacokinetic profile with only fours sampling time points after oral and intravenous route is investigated in Sprague Dawley rats as follows: each test compound is dosed orally (10 mg/kg) and intravenously (3 mg/kg) to groups of 3 male Sprague Dawley rats. Oral doses are administered as solution in EtOH/PEG400/H2O (1/79/20; v/v) by esophageal gavage (2 mg/mL; 5 mL/kg) and intravenous dose is given as solution in DMSO/PEG400/H2O (1/65/34; v/v) as a bolus in the tail vein (3 mg/mL; 1 mL/kg). Before oral dosing, animals are deprived of food (water ad libitum) for at least 16 hours before the start of the study and 6 hours after administration.
Blood is collected at the retro-orbital sinus into polypropylene tubes (Li-heparinate) at +4° C. at the following sampling-times: 0.083, 0.25, 1 and 3 h after intravenous injection and 0.25, 1, 3 and 6 hours after oral dosing. Three (3) animals are sampled per time-point; each animal being sampled four times. After centrifugation at 5000 rpm for 10 min at +4° C., plasma is collected into polypropylene tubes and kept frozen at −20° C. pending assays. Plasma samples are assayed by a LC-MS/MS method with a lower limit of quantification of 1 to 10 ng/mL depending on the compound (volume of plasma: 100 μL).
A LC-MS/MS method for quantification in heparinized plasma was developed for each test compound. Sample preparation consists of a precipitation of plasma proteins with methanol and filtration by centrifugation of supernatant on Captiva deep-well 96 0.2 μm filter plates. Water was added to methanol supernatant phase prior to analysis by liquid chromatography (Pursuit 5 C18 20×2.0 mm VARIAN, 2 μL loop, gradient Water/Methanol (90/10 to 0/100) over 1.7 min) with turboionspray tandem mass spectrometry (API4000) in negative mode using multiple reaction monitoring. The method includes 8 standard and 3 quality control levels with lower limit of quantification corresponding to first standard level.
Exposures are determined using a non compartmental model (WinNonLin 2.1) and the absolute bioavailability (F) is calculated as follows: [AUC(0-6 h) oral*3 mg/kg]/AUC(0-3 h) IV 10 mg/kg] and expressed in percentage.

For series [2], the target named is T1, human androgen receptor (hAR) (Homo sapiens, UniProt P10275).
T1 construct: expressed in transfected cells
T1 sequence (P10275 1-920): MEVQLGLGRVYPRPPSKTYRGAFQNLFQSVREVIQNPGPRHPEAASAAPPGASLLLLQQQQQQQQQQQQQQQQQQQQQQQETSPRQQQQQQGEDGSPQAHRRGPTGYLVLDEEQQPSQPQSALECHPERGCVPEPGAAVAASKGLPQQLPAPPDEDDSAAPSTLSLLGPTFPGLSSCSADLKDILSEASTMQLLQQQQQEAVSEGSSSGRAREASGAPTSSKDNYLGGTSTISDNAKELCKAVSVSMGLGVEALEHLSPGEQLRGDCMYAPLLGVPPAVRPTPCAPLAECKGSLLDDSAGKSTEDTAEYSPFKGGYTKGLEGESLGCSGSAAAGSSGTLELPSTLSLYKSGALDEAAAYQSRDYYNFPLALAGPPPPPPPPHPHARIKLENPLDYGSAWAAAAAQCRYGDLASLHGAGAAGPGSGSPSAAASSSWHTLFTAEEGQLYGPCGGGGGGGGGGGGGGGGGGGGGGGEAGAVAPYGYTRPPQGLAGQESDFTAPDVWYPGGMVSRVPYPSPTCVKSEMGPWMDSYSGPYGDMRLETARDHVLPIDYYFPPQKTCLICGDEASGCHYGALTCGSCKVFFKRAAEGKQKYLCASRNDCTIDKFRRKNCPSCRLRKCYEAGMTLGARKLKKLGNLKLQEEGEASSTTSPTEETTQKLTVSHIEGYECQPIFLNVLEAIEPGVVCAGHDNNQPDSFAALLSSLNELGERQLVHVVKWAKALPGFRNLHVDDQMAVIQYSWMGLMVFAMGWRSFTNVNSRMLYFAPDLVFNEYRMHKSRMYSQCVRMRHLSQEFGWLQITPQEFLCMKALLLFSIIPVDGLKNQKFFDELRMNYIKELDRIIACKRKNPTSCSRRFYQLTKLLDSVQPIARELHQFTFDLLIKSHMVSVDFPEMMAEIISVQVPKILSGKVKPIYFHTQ
In words: Functional response (transactivation) test in HALP2 cells (HeLa stably expressing hAR and ARE-luciferase reporter). The format is cell-based. As to conditions: HALP2 cells; for Emax: HeLa, read-out: % effect relative to DHT (100%); for EC50: agonism: concentration inducing 50% of the maximum agonistic effect of the tested compound, 24 hours, read-out: EC50. An excerpt: This test constitutes a method of identifying pure or partial agonists which mimic the effects of natural hormones, such as DHT (dihydrotestosterone) in the present case or, on the other hand, antagonists which inhibit them.
For this transactivation test, plasmids encoding a reporter gene and the human androgen receptor (hAR) are introduced together by transfection into the HeLa cell line. The reporter plasmid contains luciferase cDNA under the control of the AREs contained in the promoter sequences of the probasin gene (3xpbAREminicoll-luciferase/pGL3-puro). The expression of the reporter gene constitutes an indication of the transcriptional activity of hAR. It also encodes a protein allowing the cells expressing it to resist a treatment with puromycin. The plasmid encoding hAR contains the cDNA of hAR under the control of the Cytomegalovirus (CMV) promoter. It also encodes a protein allowing the cells expressing it to resist a treatment with neomycin. The treatment of cells with increasing amounts of potentially agonistic compounds will increase the expression of the reporter gene. To detect antagonists, on the other hand, increasing doses of test compounds are tested in the presence of […] of DHT. The expression of the reporter gene, which is constant for each dose of DHT, decreases when the concentration of the test compounds increases.
The functional response test is conducted on 96-well plates. The HALP2 cells are seeded (20,000 cells per well) in culture medium (DMEM with phenol red, 1% de Pen-Strep, 1% of non-essential amino acids, 10% of fetal bovine serum, 400 μg/mL Geneticin and 0.150 puromycin) on day 1. After 24 hours incubating at 37° C., 5% CO2, high humidity (day 2) the medium is removed and refreshed with test medium (DMEM without phenol red supplemented, 1% de Pen-Strep, 1% of non-essential amino acids and 5% of desteroidised foetal bovine serum). After another 24 hours incubating at 37° C., 5% CO2, high humidity (day 3), the medium is renewed once more before the phase of stimulation.
The cells are placed in contact with the compounds for 24 hours at 37° C., 5% CO2, high humidity. On day 4 the medium is then removed and the luciferase activity reading reagent is placed in contact with the cells in accordance with the manufacturer's instructions (SteadyLite, Perkin-Elmer). The luminescence produced is detected on an Envision reader (Perkin-Elmer). […]
The determination of the relative agonism/antagonism of a compound is obtained by comparing the maximal activation obtained with said compound and the activation obtained with DHT alone (100%).

Series [3] concerns castrated immature young rats. In words: Adapted model of Hershberger's test. The format is in vivo, Sprague Dawley rats. As to conditions: Rattus norvegicus, po, 96 h, ORX control = 0%, SHAM control = 100%, per os daily for 4 days, dose tested 10 mg/kg. The protocol: The selective modulating activity of the androgen receptor is tested in a model of castrated immature young rats. This model, which is widely recognised for evaluating the anabolic effects of androgen compounds on the muscles and on the prostate, has been described by Hershberger et al. 1953 Proc. Soc. Expt. Biol. Med. 83:175.
The method is based on the measurement of the well-known effects of androgens on the growth of the muscles and the accessory male sex organs in animals, and also in men. The consequences of castration appear in the form of a rapid involution and atrophy of the prostate and the seminal vesicles and of the anus-lifting muscle (levator ani). This effect may be completely compensated by an exogeneous administration of androgen, in particular of testosterone. The model is thus used to determine the capacity of the tested molecules to maintain the weight of the accessory sex and muscle organs in immature castrated rats, and therefore their androgenic efficacy.
Immature young Sprague Dawley rats (4 to 5 weeks old) weighing approximately 140-160 g (Charles River, Les Oncins, FRANCE) are distributed randomly in various groups and are kept in an environment at 22±2° C. with an alternating day/night cycle of 12 hours and ad libitum access to food and drink.
On day 0 (seven days before commencement of the first treatment) the rats are weighed individually then anaesthetised with an intraperitoneal dose of Ketamine/xylazine (85/15 mg/kg, approximately 2 ml/kg). Each animal is then placed on a sterile field and the abdomen and the scrotum are disinfected with Betadine and 70% alcohol. In the case of the orchidectomised control animals (ORX), the testicles are removed via an incision in the middle of the scrotum. A sterile suture is then made to ligature the supra-testicular portion of the tissue prior to surgical section of each testicle. The groups of animals to be treated by the tested compounds are operated on in an identical manner. In the case of the intact control animals (SHAM), the testicles are similarly extracted and reintroduced delicately to their original location. The site of surgical intervention is then sutured using sterile suture thread, and the site is disinfected again by application of Betadine. Each animal is then kept under a sterile pad until it awoke, before being returned to its cage. The animals are kept in an environment at 22±2° C. with an alternating day/night cycle of 12 hours and ad libitum access to food and drink. The animals are treated with the molecules to be tested from post-surgery day 7 and until day 10 preceding sacrifice (day 11).
The rats are split into groups and treated daily from day 7 to day 10 under the conditions defined below: • 1. SHAM control group: Vehicle (PEG400/DMSO/water; 79/1/20) administered per os. • 2. ORX control group: Vehicle (PEG400/DMSO/water; 79/1/20) administered per os. • 3. Treated ORX group: The tested compounds are administered individually per os in suspension in the vehicle described above, in a dose of 10 mg/kg.
After treatment for 4 successive days, the animals are decapitated using a guillotine. The levator ani and the ventral prostate are removed and weighed individually. For comparing inter-experimental data, the weight of each organ is standardised and expressed in milligrammes per 100 g of the weight of the animal (W). For each organ, the average of the standardised weights of the ORX control group is fixed by definition at 0% and the average of the standardised weights of the SHAM control group is fixed by definition at 100%. The efficacy of each product is expressed as a percentage and calculated using the following formula: (Wtreated−WORX)/(WSHAM−WORX)×100
A subsequent ANOVA test is used for statistical analysis to identify the differences between groups.

Setting [4] is: maximal activation by the compound compared with DHT alone (100%).
The mark [5] stands for this setting: levator ani weight, read-out: Anabolic activity %.
Setting [6] is: ventral prostate weight, read-out: Androgenic activity % (Prostate).

Like-named read-outs stand apart in the source and are kept apart here.

As for `CCC(O)C1(c2ccccc2)C(=O)N(c2ccc(C#N)c(C(F)(F)F)c2)C(=O)N1C` (single isomer, unassigned) [Example 3, 4-[2,5-Dioxo-4-(1-hydroxypropyl)-3-methyl-4-phenylimidazolidin-1-yl]-2-trifluoromethylbenzonitrile], the bioavailability in series [1] (male, Sprague-Dawley, rat, plasma, po, 10 mg/kg, read-out: Bioavailability) is 50 to 90%.
As to `CC(O)C1(c2ccccc2)C(=O)N(c2ccc(C#N)c(C(F)(F)F)c2)C(=O)N1C` (single isomer, unassigned) [Example 4, 4-[2,5-Dioxo-4-(1-hydroxyethyl)-3-methyl-4-phenylimidazolidin-1-yl]-2-trifluoromethylbenzonitrile], the Emax in series [2] (setting [4]) lay within 0 to 5%. Besides, in series [1], the bioavailability result is given as “# (0-49%)”.
As to `CC(O)C1(c2ccccc2)C(=O)N(c2ccc(C#N)c(C(F)(F)F)c2)C(=O)N1C` (single isomer, unassigned) [Example 5, 4-[2,5-Dioxo-4-(1-hydroxyethyl)-3-methyl-4-phenylimidazolidin-1-yl]-2-trifluoromethylbenzonitrile], in series [2] (setting [4]), the “% effect relative to DHT (100%)” value was “§ (0-5%)”. For the same compound, in series [1], the bioavailability result is “### (>90%:)”.
As to `N#CCN1C(=O)N(c2ccc(C#N)c(C(F)(F)F)c2)C(=O)C1(CO)c1ccccc1` (centres unmarked) [Example 18, 4-[3-Cyanomethyl-2,5-dioxo-4-(hydroxymethyl)-4-phenylimidazolidin-1-yl]-2-trifluoromethylbenzonitrile], the Emax in series [2] (setting [4]) lay in the range of 6 to 20%. The EC50 in series [2] lay in the range of 501 to 1000 nM. The response vs control in vivo at 10 mg/kg in series [3] (setting [5]) lay within 75 to 100%; in series [3] (setting [6]), 0.5 to 25%.
With `C#CCN1C(=O)N(c2ccc(C#N)c(C(F)(F)F)c2)C(=O)C1(CO)c1ccccc1` (centres unmarked) [Example 19], the Emax in series [2] (setting [4]) was in the range of 6 to 20%. Also, in series [2], the EC50 was 101 to 500 nM. Further, the response vs control in vivo at 10 mg/kg in series [3] (setting [5]) was 75 to 100%; in series [3] (setting [6]), 25 to 50%.
For `Cc1cccc(C2(CO)C(=O)N(c3ccc(C#N)c(C(F)(F)F)c3)C(=O)N2C)c1` (centres unmarked) [Example 21, 4-[2,5-Dioxo-4-hydroxymethyl-3-methyl-4-(3-methylphenyl)imidazolidin-1-yl)-2-trifluoromethylbenzonitrile] the same measures were 6 to 20%, 501 to 1000 nM, 0.5 to 25% and 0%.
